Experiment in all cases: inhibition of tumour cell growth, NCI panel, 48 h
Assay [1] has as its system OVCAR-3 ovarian.
The subject of assay [2] is KM12 colon.
Assay [3] has as its system ACHN renal.
For assay [4], the system named is SN12C renal.
Assay [5] deals with SW-620 colon.
The test system of assay [6] is UACC-62 melanoma.
The subject of assay [7] is NCI-H226 lung.
In assay [8] the test system is PC-3 prostate.
Assay [9] relates to MCF7 breast.
Assay [10] relates to DU-145 prostate.

32 compounds from PubChem BioAssay (NCI) can be followed below.

Several values for one entry are separate records, joined by “and”; a condition that tells them apart may be missing. Identical values can stand only once.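 Interpolation was linear, between the two tested concentrations surrounding the appropriate level; five concentrations were tested over 48 hours in 96-well plates. Here, GI50 denotes the concentration required for 50% inhibition of growth. TGI: total growth inhibition.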 A value given as a limit tells only on which side of the number the result lay.

In the case of `CC(=O)OCc1cc(OC(C)=O)cnc1COC(C)=O`, the TGI in assay [1], in assay [2], in [3], in [4], in assay [5] and in assay [6] was more than 100 µM each time. For the same compound, in [7], the TGI is more than 100 µM.

Consider `N/C(=N\N=C\c1cccs1)NO`, for which the TGI in assay [1] was more than 100 µM; in assay [2] it was more than 100 µM; in assay [3] it was more than 100 µM; in assay [4], more than 100 µM; in assay [5], more than 100 µM; in assay [6], 51 µM. The compound also had a TGI in assay [7] of more than 100 µM.

Regarding `CCOC(=O)c1ccc(N(CCOS(C)(=O)=O)CCOS(C)(=O)=O)cc1C`, the GI50 in assay [8] is 30.4 µM; in assay [1], 18.8 µM; in assay [2], 90.4 µM; in assay [3], 9.94 µM; in assay [4] it was 24.7 µM; in [9], 17.5 µM. In addition, the GI50 in assay [5] is 88.2 µM; in assay [6], 23.8 µM; in assay [10], 18.4 µM. Besides, the TGI in [8] was more than 100 µM; in [1] it was 44 µM; in assay [2], more than 100 µM; in assay [3], 42.7 µM; in assay [4], more than 100 µM; in [9] it was more than 100 µM. Also, the TGI was more than 100 µM in [5], 95.4 µM in assay [6] and 38.9 µM in assay [10].

As for `COc1cc2ccc3c4c(OC)cc(OC)c(OC)c4c(=O)n(C)c3c2cc1OC`, the GI50 in assay [1] was 0.755 µM; in assay [2], 0.548 µM; in [3], 4.88 µM; in [4] it was 0.532 µM; in assay [5], 1.05 µM; in assay [6] it was more than 16.7 µM. Further, the TGI in [1] was 7.02 µM and > 40.5 µM; in assay [2] it was 2.57 µM; in assay [3] it was 16.7 µM and > 44.7 µM; in assay [5] it was 4.43 µM; in assay [6], more than 47.3 µM; in assay [7], more than 42 µM.

In the case of `Cc1cc(O)c(C(c2cccnc2)c2c(O)cc(C)[nH]c2=O)c(=O)[nH]1`, the TGI in assay [8], in [1], in [2], in assay [3], in assay [4] and in assay [9] was more than 100 µM throughout. Besides, the TGI in [6] and in assay [10] was more than 100 µM throughout.

Regarding `COc1cc(/C=C2\[C@H]3c4c(c(OC)c(C)c(OC)c4OC)C[C@@H](C(=O)N2Cc2ccccc2)N3C(=O)OC(C)C)c(OC)c(C)c1OC`, the TGI in [1], in assay [2], in assay [3], in [4], in assay [5] and in [6] was more than 100 µM each time. Moreover, the TGI in [7] came out at 56.2 µM.

As for `Cc1ccc(S(=O)(=O)/N=c2\ssc(Nc3ccccc3)c2Cl)cc1`, the GI50 in assay [8] was 6.95 µM; in [1], 6.08 µM; in [2] it was 8.26 µM; in assay [3], 9.58 µM; in assay [4] it was 8.99 µM; in [6] it was 13.5 µM. Moreover, the GI50 is 7.74 µM in assay [10] and 19.2 µM in [7]. Further, the TGI is 18.4 µM in assay [8]; 20.2 µM in assay [1]; 20.4 µM in [2]; 22.5 µM in [3]; 25.6 µM in assay [4]; more than 50 µM in [6]. Also, the TGI in assay [10] is 27.6 µM; in assay [7] it was more than 50 µM.

In the case of `Cc1c(C(=O)CC(=O)C(=O)Nc2ccc(Cl)c(Cl)c2)[n+](=O)c2ccccc2n1[O-]`, the TGI in assay [1] was 7.91 µM; in [2], more than 100 µM; in assay [3], more than 100 µM; in [4] it was 55.4 µM; in assay [5] it was 71.8 µM; in [6], 32.7 µM. This compound gave a TGI in assay [7] of more than 100 µM.

With `COc1ccc(N(CC(=O)NCCC[Te]c2ccccc2)C(=O)CCSC2=C(C)C(=O)c3ccccc3C2=O)cc1`, the GI50 is 0.656 µM in [8]; 1.44 µM in assay [1]; 0.702 µM in [2]; 1.57 µM in assay [3]; 0.84 µM in [4]; 0.585 µM in [9]. Moreover, the GI50 in [5] is 2.41 µM; in [6] it was 1.82 µM; in assay [10], 1.44 µM. In addition, the TGI in assay [8] turned out to be 2.91 µM; in [1], 3.19 µM; in assay [2], 2.18 µM; in [3], 3.47 µM; in assay [4], 3.77 µM; in assay [9], 11.3 µM. Besides, the TGI was determined as 8.03 µM in assay [5], 4.31 µM in assay [6] and 3.24 µM in [10].

For `C#CCOCn1cnc2c(=S)nc[nH]c21`, the TGI in assay [1], in [2], in [3], in assay [4], in assay [5] and in assay [6] was more than 100 µM in each case. For the same compound, the TGI in assay [7] is more than 100 µM.

For `CC(=O)NC(CCCCNC(=O)N(CCCl)N=O)C(=O)NCc1ccccc1` (stereo not drawn), the TGI in assay [1], in assay [2], in assay [3], in [4], in assay [5] and in assay [6] was more than 100 µM in each case. The TGI in [7] was more than 100 µM.

`CCC1=C(C)/C(=C/c2[nH]c(CBr)c(CC)c2C)N=C1CBr`: the TGI in [1] stood at 30.1 µM; in [2], 26.9 µM; in [4] it was 28.3 µM; in [5], 25.3 µM; in assay [6], 24.6 µM.

`COc1ccc(C(c2ccc(C(C)C)cc(=O)c2O)c2ccc3cccnc3c2O)cc1` (stereo not drawn): the TGI is 4.95 µM in assay [1]; 18.7 µM in assay [2]; 7.53 µM in [3]; 9.48 µM in assay [4]; 24.4 µM in assay [5]; 4.63 µM in assay [6]. The compound also had a TGI in assay [7] of 4.38 µM.

For `COc1cc(-c2cc(=O)c3ccccc3o2)ccc1N`, the TGI in assay [1], in assay [2], in [3], in assay [4], in assay [5] and in assay [6] was more than 100 µM each time. Besides, in assay [7], the TGI was 96.6 µM.

As for `O=c1c2ccccc2nc(-c2ccc(Br)cc2)n1NC1OC(CO)C(O)C(O)C1O` (stereo not drawn), the TGI in assay [1], in assay [2], in assay [3], in assay [4], in assay [5] and in [6] was more than 100 µM each time. Moreover, the TGI in assay [7] is more than 100 µM.

As to `O=C(/C=C\c1cccc2ccccc12)c1cccs1`, the TGI in assay [1] was determined as 23.7 µM; in [2] it was 17.6 µM; in [3], 24.1 µM; in assay [4], 31.5 µM; in assay [5] it was 2.99 µM; in [6] it was 21.5 µM.

For `C/C=C/C=N/N(C(=O)c1cc([N+](=O)[O-])cc([N+](=O)[O-])c1)C1=NC(c2ccccc2)C(c2ccccc2)=NN1` (stereo not drawn), the TGI in [1] is 72 µM; in [2], more than 100 µM; in assay [3] it was more than 100 µM; in assay [4] it was more than 100 µM; in assay [5], more than 100 µM; in [6], more than 100 µM. The TGI in assay [7] was more than 100 µM.

Regarding `Cc1ccccc1NC(=O)C(=O)C(c1cnc2ccc([N+](=O)[O-])cc2n1)[N+](=O)[O-]` (stereo not drawn), the TGI in assay [2], in assay [3], in assay [4], in assay [5], in [6] and in assay [7] was more than 100 µM in each case.

As to `CCC(C)OC(=O)C1C2CCC(O2)C1C(=O)O` (stereo not drawn), the TGI in [1] was more than 100 µM; in assay [2], more than 100 µM; in assay [3], more than 100 µM; in [4], more than 100 µM; in assay [5] it was more than 32.1 µM; in assay [6] it was more than 100 µM. In assay [7], this compound had a TGI of more than 100 µM.

With `N=C1N(c2ccccc2)C(=O)C23CCCC2C13N1CCOCC1` (stereo not drawn), the TGI in [1], in [2], in [3], in assay [4], in [5] and in assay [6] was more than 100 µM in each case. Moreover, in assay [7], the TGI is more than 100 µM.

As to `CN=C1Nc2ccc(Cl)cc2C(c2ccccc2)=NN1C`, the TGI in assay [1], in [2], in [3], in assay [4], in assay [5] and in [6] was more than 100 µM each time. In addition, the TGI in [7] is more than 100 µM.

As for `COC(=O)C1=CN=C(C(=O)OC)NN1`, the TGI in assay [1], in [2], in [3], in assay [4], in assay [5] and in assay [6] was more than 100 µM in each case. This compound had a TGI in assay [7] of more than 100 µM.

In the case of `CN(C)C(=O)/N=c1\ss/c(=N\C(=S)N(C)C)n1-c1ccccc1`, the TGI in [1] was more than 65.6 µM; in assay [2] it was more than 100 µM; in assay [3], more than 100 µM; in assay [4], more than 100 µM; in [5], more than 100 µM; in [6], more than 100 µM. The compound further registered a TGI in assay [7] of more than 100 µM. Besides, the GI50 in assay [6] was 1.92 µM.

Take `COc1cc2nc(Sc3c([N+](=O)[O-])ncn3C)[nH]c2cc1OC`: the TGI was more than 100 µM in assay [1]; more than 100 µM in [2]; more than 100 µM in [3]; 41.5 µM in [4]; more than 100 µM in assay [5]; 75.8 µM in [6]. In assay [7], this compound gave a TGI of more than 100 µM.

For the compound `O=C(O)c1ccc(O)c(N=Nc2cc(S(=O)(=O)O)c3ccccc3c2O)c1`, the TGI in assay [1], in [2], in assay [3], in assay [4], in [5] and in assay [7] was more than 100 µM throughout.

Consider `NC(=O)N/N=C(\C(=O)C(=O)Nc1ccc(Cl)c(C(F)(F)F)c1)c1nc2ccc(C(=O)c3ccccc3)cc2[nH]c1=O`, for which the TGI in assay [2], in [3], in [4], in [5], in assay [6] and in assay [7] was more than 100 µM in each case.

With `O=C1C(=O)N(C(=O)c2ccc(Cl)c(Cl)c2)c2ccc(Cl)cc21`, the TGI in assay [1], in assay [2], in assay [3], in assay [5], in assay [6] and in assay [7] was more than 100 µM each time.

Take `Nc1ncnc(NC2C=C(CO)C(O)C2O)c1[N+](=O)[O-]` (stereo not drawn): the TGI in assay [1] is more than 100 µM; in assay [2] it was more than 100 µM; in assay [3], more than 100 µM; in assay [4], more than 100 µM; in assay [5], 59 µM; in [6], more than 100 µM. In [7], this compound gave a TGI of more than 100 µM.

For `CC(C)NCC(O)COC(=O)c1cccs1` (stereo not drawn), the TGI in assay [1], in assay [2], in [3], in [4], in assay [5] and in [6] was more than 100 µM in each case.

On to `COC(=O)/C(C#N)=C1\CCC(O)N1C` (stereo not drawn), for which the TGI in assay [1], in assay [2], in assay [3], in assay [4], in [5] and in assay [6] was more than 100 µM each time. The compound also gave a TGI in assay [7] of more than 100 µM.

For `COC(=O)C(C(=O)C(=O)Nc1ccccc1C(C)=O)c1nc2ccc(Cl)cc2[nH]c1=O` (stereo not drawn), the TGI in assay [1], in assay [2], in assay [3], in assay [4], in [5] and in assay [6] was more than 100 µM each time. The same compound displayed a TGI in assay [7] of more than 100 µM.

For the compound `Cc1oc2c(C)c(O)c3c(c2c1C1(C)OCCO1)C(=O)C=C(Cl)C3=O`, the TGI in [1], in [2], in assay [3], in assay [4], in [5] and in assay [7] was more than 100 µM each time.
